Values joined by “and” are separate entries in the source; they are usually repeats but may differ in a detail not shown here. Equal values may be shown once. “Also recorded” adds a separate entry of the source.

Here are results for three substances from patent US7014856B1, “Ganglioside-KLH conjugate vaccines plus OS-21” (Sloan-Kettering Institute for Cancer Research, priority 1993, dated 2006).

Data set [1] deals with KLH. Briefly: IgG ELISA titer against KLH (fourth series). The data set is classed as in vivo, human. As to conditions: No adjuvant. The protocol:
(§1) Enzyme-linked Immunosorbent Assay (ELISA) were performed as previously described for gangliosides (5). […] The titer was defined as the highest dilution yielding a corrected absorbance of 0.1 or greater. Immunostaining of gangliosides with monoclonal antibodies or human sera was performed after spotting on nitrocellulose strips as previously described (22). […] Twenty-five micrograms of each were diluted in 0.05 ml PBS and administered intradermally. Results were interpreted as described previously (5).
(ELISA stands for enzyme-linked immunosorbent assay.)

For the next data set, the system named is ganglioside GM2. In words: Peak antibody titer against ganglioside GM2 by ELISA (Table 2). The data set is classed as in vivo, human. The conditions noted are these: peak titer against GM2 after immunization.
In data set [2] the test system is GM2. In words: Dot blot immune stain for GM2 antibodies (third series). The data set is classed as in vivo, human. The procedure: (§2) ELISA was performed as previously described (6). To control for nonspecific “stickiness”, immune sera were also tested on plates which were processed identically but to which no ganglioside had been added, and the reading was subtracted from the value obtained in the presence of ganglioside. The titer was defined as the highest dilution yielding a corrected absorbance of 0.1 or greater. Immunostaining of gangliosides with monoclonal antibodies or human sera was performed after spotting on nitrocellulose strips (14) or separation on HPTLC silica gel glass plates as previously described (3). Plates were developed in chloroform/methanol/water (0.25% CaCl2) 50:40:10 (v/v), and gangliosides were visualized by staining with resorcinol/HCl reagent or monoclonal antibodies.

Data set [3] deals with melanoma patients. The conditions noted are these: six patients per group.
Data set [4] deals with GM2. Briefly: ELISA for GM2 antibodies in patients receiving GM2-KLH conjugate vaccines (third series). The data set is classed as in vivo, human. The protocol: Four vaccinations were administered intradermally into extremities with intact lymphatic drainage at two-week intervals, followed by two additional vaccinations at eight week intervals. Cyclophosphamide (Cytoxan, Mead Johnson and Co., Evansville, Ind.) 200 mg/m2 was administered intravenously to all patients 4 to 6 days prior to the first vaccination.
as §2

Another data set concerns patients. In words: Toxicity in patients treated earlier with GM2 or GM2-KLH vaccines. The class given is in vivo, human.
Data set [5] has as its system GM2. Briefly: ELISA titer against GM2 (fourth series). The data set is classed as in vivo, human. The protocol:
as §1

Data set [6] deals with KLH. In words: ELISA for KLH antibodies (third series). The data set is classed as in vivo, human.
Data set [7] has as its system GM2. In words: Dot blot immune stain against GM2 (fourth series). On the set-up: key: Reactions were graded 0, 1+, 2+ or 3+; Reactions were graded 0, 1+, 2+ or 3+; Reactions were graded 0, 1+, 2+ or 3+; Reactions were graded 0, 1+, 2+ or 3+. The class given is in vivo, human. The procedure:
as §1

Data set [8] has as its system melanoma patients. In words: Delayed-type hypersensitivity skin tests with GM2, GM2-HSA and KLH. The data set is classed as in vivo, human. As to conditions: 25 micrograms intradermally at the fifth vaccination; 24 and 48 hours. The protocol:
as §1

Data set [9] concerns melanoma patients. The conditions noted are these: outpatient setting, s.c. with GM2-KLH.
Method: Melanoma patients with AJCC Stage III or IV disease were considered eligible if all evidence of metastatic disease had been rejected within the last 8 months. None of the patients had received prior chemotherapy or radiation therapy. Patients were evaluated for toxicity at the time of each vaccination. In addition, patients were instructed to measure local reactions and to take their temperature.
The GM2/KLH solar ratio was approximately 800/1 and was supplied at a concentration of 0.57 mg conjugate per 0.5 ml normal saline. This represented one patient dose and contained 70 ug GM2, 500 ug KLH and 0.5 ml normal saline. QS-21 adjuvant, containing a saponin component isolated from Quillaja saponaria Molina tree bark, was provided by Cambridge Biotech Corp. (Worcester, Mass.). The purity of the QS-21 was determined to be ≧98% by analytical reverse phase HPLC. […] The vaccine (final volume 0.75 ml) was vortexed for 2–3 minutes and administered within 15 min. Four vaccinations were administered subcutaneously at two week intervals followed by two more at eight week intervals. Initially 12 patients were treated, 3 at each of the 4 QS-21 doses. […] Cyclophosphamide (Cytoxan, Mead Johnson and Co., Evansville, Id.) 200 mg/M^2 was administered IV to all patients 3–6 days prior to the first vaccination.
Another data set relates to T antigen-KLH. In words: Preclinical adjuvant studies with KLH-conjugate vaccines such as T antigen-KLH. The data set is classed as in vivo, mice.
For another data set, the system named is QS-21. Briefly: ELISA for antibodies to QS-21. As to conditions: after immunizations. The class given is in vivo, human. The protocol:
as §1

Data set [10] has as its system mouse, cat and Rhesus monkey. The conditions noted are these: doses as high as 125 ug per mouse; cited from earlier work.

Regarding “11^3NeuAc-GgOse3Cer-keyhole limpet hemocyanin (KLH) [GM2-KLH]”, the “IgG ELISA TITER AGAINST KLH Pretreatment” value with KLH [1] is listed as 0 (6). Moreover, the “Antibody Titers by Elisa IgG” value in the data set on ganglioside GM2 stood at 0. Further, the “patients with 3+ reactivity of IgM antibodies against GM2” value in the data set with GM2 [2] was “two of six”. In the data set with melanoma patients [3], the “local or systemic side effects” value is “No local or systemic toxicity”. Moreover, in the data set with GM2 [4] (before immunization), the “Reciprocal GM2 antibody titers before immunization IgG” value was determined as 0. Besides, in the data set on GM2 [4] (median, after immunization), the “median titers: reciprocal GM2 antibody titer after immunization (Peak) IgG” value was found to be 0 and the “median titers: reciprocal GM2 antibody titer after immunization (Peak) IgM” value was determined as 80. Further, in the data set with GM2 [4] (median, before immunization), the “median titers: reciprocal GM2 antibody titer before immunization IgG” value was 0 and the “median titers: reciprocal GM2 antibody titer before immunization IgM” value worked out at 0. Moreover, the “toxicity attributed to the substance” value in the data set with patients is “pain and tenderness at vaccines sites lasting 48 hours”. In the data set on GM2 [5] (GM2-KLH alone), the “Reciprocal median IgM antibody titer against GM2” value is on record as 80, the “median IgG antibody titer against GM2” value worked out at 0 and the “patients who produced IgM antibody” value is on record as “Five of 6”. Further, in the data set with GM2 [5] (GM2-KLH alone, 6 patients), the “patients who produced IgG antibody (of low titer)” value is on record as 1. Moreover, the “PEAK ELISA TITER AGAINST GM2 Pretreatment IgG” value with GM2 [5] (No adjuvant) is 0 (6). Further, the “induction of IgM and IgG antibody titers, 7 μg GM2 dose versus 70 μg dose” value with GM2 [5] (patients with advanced disease, 100 μg QS-21) is “equally as effective”. Also, the “median titers: reciprocal KLH antibody titer after immunization (Peak) IgG” value with KLH [6] was 120. Moreover, in the data set with GM2 [7] (GM2-KLH alone), the “median IgM dot blot reaction against GM2” value is reported as 2+. Also, in the data set on GM2 [7] (No adjuvant), the “PEAK DOT BLOT IMMUNE SYSTEM RESPONSE AGAINST GM2 IgG” value is 0 and 1+; the “PEAK DOT BLOT IMMUNE SYSTEM RESPONSE AGAINST GM2 IgM” value is 2+ and 1+, and 0 and 3+,. Moreover, the “median IgG dot blot reaction against GM2” value in the data set with GM2 [7] (no QS-21) stood at 0.

As for “II^3NeuAc-GgOse3Cer [GM2, reference compound]”, the “reaction at skin test sites” value in the data set with melanoma patients [8] is recorded as “No erythema or induration”. The “toxicity attributed to the substance” value in the data set with patients was “No toxicity”.

With QS-21, the “probable MTD per vaccination” value in the data set on melanoma patients [9] worked out at 200 µg. In the data set on T antigen-KLH (mice), the DTH entry is reported as “potent DTH”. Also, the IgG antibody titers result in the data set on T antigen-KLH (most mice, KLH-conjugate vaccine with QS-21) is reported as “over 1/4000”. Besides, in the data set with QS-21, the “antibodies against QS-21” value is on record as “No antibodies against QS-21 were detected; also recorded: no significant increase in antibody to QS-21”. Also, in [10], the toxicity result is listed as “no clear toxicity”.
